Entries after “also recorded” stand apart in the source; their conditions may differ.
Target: T1, Fumarylacetoacetase (FAH) (Homo sapiens, UniProt P16930)
T1 construct: FLAG; host or cells: HEK293T
Assay: gel-based ABPP, HHS-475 probe, HEK293T cells expressing recombinant FAH
Format: cell-based
Details: live HEK293T cells, ligand 25 μM or varying, 2 h; HHS-475 100 μM
Experimental: HEK293T cells at 30-50% confluency were transfected with 2.6 μg of FAH or PTGR2 plasmid DNA in a serum-free media/polyethyleneimine solution for 48 hrs. The cells were washed once with warm, sterile DPBS (1×, 5 mL), and then 10 mL of serum-free media (supplemented with 1% L-glutamine) containing either DMSO or SuTEx fragment (in DMSO) was added. After 2 hrs, the cells were treated with 100 μM of SuTEx alkyne probe (HHS-475, 10 μL of 1000× DMSO stock) and incubated for an additional 2 hrs. The media was aspirated and cells washed with cold PBS (5 mL) and harvested. Cells were spun at 500×g for 5 min at 4° C. and supernatant was removed. Pellets were resuspended in 1 mL of cold DPB S and spun at 1,400×g for 3 min at 4° C. and supernatant was removed. […] The samples were analyzed by SDS-PAGE (30 μL) and imaged by in-gel fluorescence scanning.
Competitive gel-based chemoproteomic assays were performed using recombinant proteins from select targets to verify our LC-MS findings. […] Quantitative chemical proteomic studies identified HHS-0401 as a ligand for the Y244 site of FAH. These findings were confirmed by treating HEK293T cells expressing recombinant FAH with SuTEx ligands (25 μM, 2 hours, 37° C.) followed by labeling with HHS-475 probe (100 μM, 2 hours, 37° C.), cell lysis, and conjugation with rhodamine azide by CuAAC to visualize probe-modified proteins using in-gel fluorescence scanning.

T1 sequence (P16930 whole entry): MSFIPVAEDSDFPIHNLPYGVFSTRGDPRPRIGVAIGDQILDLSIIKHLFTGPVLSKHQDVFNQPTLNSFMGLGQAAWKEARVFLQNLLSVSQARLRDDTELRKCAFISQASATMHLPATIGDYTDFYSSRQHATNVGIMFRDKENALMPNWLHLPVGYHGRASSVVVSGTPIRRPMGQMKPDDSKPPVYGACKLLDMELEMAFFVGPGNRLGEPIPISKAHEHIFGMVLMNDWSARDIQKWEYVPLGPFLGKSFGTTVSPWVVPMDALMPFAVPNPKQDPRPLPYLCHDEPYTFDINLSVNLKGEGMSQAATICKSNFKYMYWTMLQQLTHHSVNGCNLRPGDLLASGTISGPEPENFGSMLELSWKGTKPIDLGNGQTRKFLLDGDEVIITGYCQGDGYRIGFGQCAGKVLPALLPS

O=C(NCc1ccccc1)c1ccc(S(=O)(=O)n2cncn2)cc1 [HHS-0401, 4-((1H-1,2,4-triazol-1-yl)sulfonyl)-N-benzylbenzamide]
blockade of HHS-475 labeling of FAH: blocked HHS-475 labeling of FAH; also recorded: competing probe labeling of recombinant FAH in a concentration-dependent manner

Reference: patent US20240210412A1, “SULFONYL-TRIAZOLE COMPOUNDS USEFUL AS LIGANDS AND INHIBITORS OF PROSTAGLANDIN REDUCTASE 2” (University of Virginia Patent Foundation, priority 2021, published 2024)
